Laboratory results taken from patent US20030032612A1 (priority 1997, published 2003).
Values joined by “and” are separate entries in the source; they are usually repeats but may differ in a detail not shown here. Identical values can stand only once.

How the values were obtained:
Assay type in all cases: cell-based, E. coli
AG 102 mar mutant = assay: Gradient plate assay, MIC of antibiotics in AG 102 with plasmids; settings: Escherichia coli
Experimental: To establish further the inhibitory efficacy of antisense marA sequences, KMN23 (the same DNA vector described above, containing both the marR and the marA genes cloned in the antisense direction) was also expressed in the presence of various antibiotics (tetracycline (Tet), chloramphenicol (Cml), ampicillin (Amp) and rifampicin (Rif). The effect of KMN23 was assessed by measuring cell growth inhibition by the gradient plate method as described in Example 9. The results are shown in TABLE 3.
(§1) Bacterial susceptibility to tetracycline hydrochloride, chloramphenicol, ampicillin, kanamycin, rifampin, nalidixic acid and norfloxacin was assayed by the gradient plate method. (Microbiology: Including Immunology and Molecular Genetics (3rd ed.)(Davis et al. eds.(1980)J. P. Lippincott Co., Philadelphia, Pa.).

[1] = test system: ML308-225-C2 (Mar mutant); assay: Augmentation of bactericidal activity of norfloxacin by oligonucleotides, colony counts
ML308-C2 = assay: MIC on antibiotic gradient plates in Mar mutant ML308-C2; settings: Escherichia coli, read-out: MIC of norfloxacin
Experimental: Antibiotic resistant mutants of ML308-225 (Rahman et al. (1991) Antisense Res. Dev. 1:319-327) were grown and maintained at 30° C. in LB broth. These mutants were selected by spreading washed overnight cultures onto a LB agar plate containing chloramphenicol (5 μg/ml, Sigma, St. Louis, Mo.) and incubated at 30° C for 48-72 hours. Single colonies appearing after 48 hours were picked for further study.
One mutant showing increased minimal inhibitory concentrations (hereinafter referred to as MIC) to tetracycline, chloramphenicol, ampicillin, nalidixic acid, and norfloxacin was selected and designated ML308-C2. Sequencing confirmed a C® T substitution in amino acid 117 of marR, which results in a truncated MarR protein. […] Northern analysis using a marA DNA probe confirmed that ML308-C2 over expresses marA and was a Mar mutant (unpublished data).
as §1

Row | SMILES | MIC (AG 102 mar mutant) [µg/mL] | activity at 0.5 µg/mL ([1]; Escherichia coli, norfloxacin 0.5 µg/mL alone, 1 hour, Table 5, read-out: % OF CONTROL (untreated cells)) [%] | % OF CONTROL CELLS ([1]; norfloxacin 0.5 μg/ml alone, oligo 1284 0 μM, duplicate experiments) | MIC (ML308-C2) [µg/mL]
1 | CC1(C)S[C@@H]2[C@H](NC(=O)[C@H](N)c3ccccc3)C(=O)N2[C@H]1C(=O)O [Amp, ampicillin] | 17.7 | – | – | –
2 | O=C(N[C@H](CO)[C@H](O)c1ccc([N+](=O)[O-])cc1)C(Cl)Cl [Cml, chloramphenicol] | 34.2 | – | – | –
3 | CCn1cc(C(=O)O)c(=O)c2cc(F)c(N3CCNCC3)cc21 [Norfloxacin, norfloxacin] | – | 65 | 71% and 57% | 0.5
4 | CO[C@H]1/C=C/O[C@@]2(C)Oc3c(C)c(O)c4c(O)c(c(/C=N/N5CCN(C)CC5)c(O)c4c3C2=O)NC(=O)/C(C)=C\C=C\[C@H](C)[C@H](O)[C@@H](C)[C@@H](O)[C@@H](C)[C@H](OC(C)=O)[C@@H]1C [Rif, rifampicin] | 8.8 | – | – | –
5 | CN(C)[C@@H]1C(O)=C(C(N)=O)C(=O)[C@@]2(O)C(O)=C3C(=O)c4c(O)cccc4[C@@](C)(O)[C@H]3C[C@@H]12 [Tet, tetracycline] | 12.5 | – | – | –
